{"source": "patent US8592438B2", "about": "“Plant disease control composition” (Sumitomo Chemical Intellectual Property Service, Ltd, priority 2008, dated 2013)", "key": {"[1]": {"test_system": "cucumber Gray mold fungus", "assay": "Test Example 2: cucumber Gray mold control test, foliar spray on potted cucumber, disease spot diameter indices", "format": "in vivo", "details": "sum over 8 cucumber leaves, index 0 (spot 0 mm) to 5 (over 20 mm), 12° C. humid", "procedure": "(§1) A plastic pot was stuffed with sand loam, and cucumber was sowed, and grown for 12 days in a greenhouse. A compound (Ia), compound (Ib), compound (III) and compound (IV) were prepared into flowable formulations according to the following preparation method, and the resultant flowable formulations were diluted with water, then, mixed to prepare a treatment solution containing the compound (Ia) and compound (III) of prescribed concentrations, a treatment solution containing the compound (Ib) and compound (III) of prescribed concentrations, a treatment solution containing the compound (Ia) and compound (IV) of prescribed concentrations, and a treatment solution containing the compound (Ib) and compound (IV) of prescribed concentrations. The treatment solutions were sprayed on stems and leaves so as to fully adhere to the leaf surfaces of the cucumber. After spraying, the plant was air-dried, and a PDA medium containing spores of cucumber Gray mold fungus was placed on the cucumber leaf surface. Thereafter, it was left under humid condition at 12° C., then, a control effect thereof was checked.\nFurther, wettable powders of the compound (Ia), compound (Ib), compound (III) and compound (IV) each were diluted with water to prescribed concentrations to prepare respective treatment solutions, which were subjected to a parallel test.\nIn checking of the control effect, the disease spot diameter was measured for 8 leaves of cucumber. A case of a disease spot diameter of 0 mm was evaluated as a controlling index of 0, a case of a disease spot diameter of 1 to 5 mm was evaluated as a controlling index of 1, a case of a disease spot diameter of 5 to 10 mm was evaluated as a controlling index of 2, a case of a disease spot diameter of 10 to 15 mm was evaluated as a controlling index of 3, a case of a disease spot diameter of 15 to 20 mm was evaluated as a controlling index of 4, and a case of a disease spot diameter of over 20 mm was evaluated as a controlling index of 5.\nA compound (Ia), compound (Ib), compound (III) or compound (IV) (10 parts), a mixture (35 parts) of white carbon and polyoxyethylene alkyl ether sulfate ammonium salt (weight ratio 1:1) and water (55 parts) were mixed, and finely ground by a wet grinding method to obtain respective flowable formulations."}, "[2]": {"test_system": "cucumber Gray mold fungus", "assay": "Test Example 1: cucumber Gray mold control test, foliar spray on potted cucumber", "format": "in vivo", "details": "spray on cucumber stems and leaves, 6 days at 12° C. humid", "procedure": "as §1, with “(Ib)” for “(Ib), compound (III)”, “(II)” for “(IV)”, “(II)” for “(III) of prescribed concentrations, a treatment solution containing the compound (Ib) and compound (III) of prescribed concentrations, a treatment solution containing the compound (Ia) and compound (IV)”, “left for 6 days at 12° C.” for “left”, “condition,” for “condition at 12° C.,”\nFurther, wettable powders of the compound (Ia), compound (Ib) and compound (II) each were diluted with water to prescribed concentrations to prepare respective treatment solutions, which were subjected to a parallel test.\nIn checking, evaluation indices described later were used. According to formula 1, the pathogenesis degree was calculated, and based on the pathogenesis degree, a controlling value (%) was calculated using formula 2.\nA compound (Ia), compound (Ib) or compound (II) (10 parts), a mixture (35 parts) of white carbon and polyoxyethylene alkyl ether sulfate ammonium salt (weight ratio 1:1) and water (55 parts) were mixed, and finely ground by a wet grinding method to obtain respective flowable formulations.\n• 0: disease spot diameter, 0 mm • 1: disease spot diameter, 1 to 5 mm • 2: disease spot diameter, 5 to 10 mm • 3: disease spot diameter, 10 to 15 mm • 4: disease spot diameter, 15 to 20 mm • 5: disease spot diameter, over 20 mm pathogenesis degree=Σ(evaluation index of checked leaf)×100/(5×number of checked leaves) Formula 1 controlling value (%)=100×(A−B)/A Formula 2 • A: pathogenesis degree of plant in non-treated district • B: pathogenesis degree of plant in treated district"}, "[3]": {"details": "active ingredient concentration 2.5 ppm"}, "[4]": {"details": "active ingredient concentration 5 ppm"}, "[5]": {"details": "active ingredient concentration 10 ppm"}, "[6]": {"details": "active ingredient concentration 20 ppm"}, "[7]": {"details": "active ingredient concentration 40 ppm"}}}
{"smiles": "Cc1cc(C2CC2)nc(Nc2ccccc2)n1", "note": "[compound (IV), 4-cyclopropyl-6-methyl-N-phenyl-2-pyrimidinamine, reference compound]", "values": [{"measurement": "sum of controlling indices", "setting": "[1]; [3]", "result": 24}, {"measurement": "sum of controlling indices", "setting": "[1]; [4]", "result": 9}]}
{"smiles": "CNC(=O)[C@H](OC)c1ccccc1COc1cc(C)ccc1C", "note": "[compound (Ia)]", "values": [{"measurement": "controlling value", "setting": "[2]; [3]", "result": 48, "unit": "%"}, {"measurement": "controlling value", "setting": "[2]; [5]", "result": 60, "unit": "%"}, {"measurement": "controlling value", "setting": "[2]; [6]", "result": 68, "unit": "%"}, {"measurement": "sum of controlling indices", "setting": "[1]; [3]", "result": 27}, {"measurement": "sum of controlling indices", "setting": "[1]; [4]", "result": 25}, {"measurement": "sum of controlling indices", "setting": "[1]; [5]", "result": 24}, {"measurement": "sum of controlling indices", "setting": "[1]; [6]", "result": 23}]}
{"smiles": "Cc1cc(C)nc(Nc2ccccc2)n1", "note": "[compound (II), 4,6-dimethyl-N-phenyl-2-pyrimidinamine, reference compound]", "values": [{"measurement": "controlling value", "setting": "[2]; [5]", "result": 30, "unit": "%"}]}
{"smiles": "CC#Cc1cc(C)nc(Nc2ccccc2)n1", "note": "[compound (III), 4-methyl-N-phenyl-6-(1-propynyl)-2-pyrimidinamine, reference compound]", "values": [{"measurement": "sum of controlling indices", "setting": "[1]; [4]", "result": 10}]}
{"smiles": "CNC(=O)C(OC)c1ccccc1COc1cc(C)ccc1C", "note": "(stereo not drawn) [compound (Ib)]", "values": [{"measurement": "controlling value", "setting": "[2]; [4]", "result": 48, "unit": "%"}, {"measurement": "controlling value", "setting": "[2]; [6]", "result": 60, "unit": "%"}, {"measurement": "controlling value", "setting": "[2]; [7]", "result": 68, "unit": "%"}, {"measurement": "sum of controlling indices", "setting": "[1]; [4]", "result": 25}, {"measurement": "sum of controlling indices", "setting": "[1]; [5]", "result": 26}, {"measurement": "sum of controlling indices", "setting": "[1]; [6]", "result": 24}, {"measurement": "sum of controlling indices", "setting": "[1]; [7]", "result": 24}]}
